From ChEMBL document CHEMBL1158324, “Isolation, structure elucidation, and biological activity of the steroid oligoglycosides and polyhydroxysteroids from the Antarctic starfish Acodontaster conspicuus” (J Nat Prod, 1997) come the findings set out here.

What all share (format): functional, organism-based
The test system of assay [1] is Acodontaster conspicuus. In words: Antimicrobial activity against Acodontaster conspicuus McM32.2 at 20 degC after 48 hrs by paper disk method.
Assay [2] concerns Acodontaster conspicuus. Put plainly: Antimicrobial activity against Acodontaster conspicuus McM13.3 at 20 degC after 48 hrs by paper disk method.
For assay [3], the system named is Acodontaster conspicuus. Put plainly: Antimicrobial activity against Acodontaster conspicuus McM11.5 at 20 degC after 72 hrs by paper disk method.
In assay [4] the test system is Acodontaster conspicuus. Put plainly: Antimicrobial activity against Acodontaster conspicuus McM18.1 at 20 degC after 48 hrs by paper disk method.

Calls of active or inactive are those of the source. The calls are words filed in the database; no cut-off is given here.

For `C=C(CC[C@@H](C)[C@H]1C[C@@H](O)[C@@H]2[C@]1(C)CC[C@@H]1[C@@]3(C)CC[C@H](O)[C@H](O)[C@@H]3[C@@H](O)C[C@]12O)C(C)CO[C@@H]1OC[C@@H](O)[C@H](O)[C@H]1O[C@@H]1OC[C@@H](O)[C@H](O)[C@H]1OC` (some centres not stated), in assay [1], the outcome was Active.
In the case of `CC(C)C[C@@H]1O[C@H]1[C@@](C)(O)[C@H]1CC[C@H]2[C@@H]3C[C@H](O[C@@H]4O[C@H](C)[C@@H](O)[C@H](O[C@@H]5OC[C@@H](O[C@@H]6O[C@H](CO)[C@H](O)[C@H](O)[C@H]6O[C@@H]6O[C@H](C)[C@@H](O)[C@H](O)[C@H]6O)[C@H](O)[C@H]5O[C@H]5O[C@@H](C)[C@H](O)[C@@H](O)[C@@H]5O)[C@H]4O)[C@H]4C[C@@H](OS(=O)(=O)O)CC[C@]4(C)C3=CC[C@]12C`, the result in assay [2], in assay [3], in assay [1] and in assay [4] was inactive.
For the molecule `CO[C@H]1[C@H](O[C@H]2[C@H](OC[C@@H](C)[C@H](C)/C=C/[C@@H](C)[C@H]3C[C@@H](O)C4=C5C[C@H](O)[C@H]6C[C@@H](O)CC[C@]6(C)[C@H]5CC[C@@]43C)OC[C@@H](O)[C@@H]2O)OC[C@@H](O)[C@@H]1O`, the result in assay [3] was Active.
For the molecule `CO[C@H]1[C@H](O[C@H]2[C@H](OC[C@@H](C)[C@H](C)/C=C/[C@@H](C)[C@H]3C[C@@H](O)[C@@H]4[C@]3(C)CC[C@@H]3[C@@]5(C)CC[C@H](O)[C@H](O)[C@@H]5[C@@H](O)C[C@]34O)OC[C@@H](O)[C@@H]2O)OC[C@@H](O)[C@@H]1O`, the result in assay [2] and in assay [1] was Active.
For `CC(C)[C@@H](C)C(=O)C[C@@](C)(O)[C@H]1CC[C@H]2[C@@H]3C[C@H](O[C@@H]4O[C@H](C)[C@@H](O)[C@H](O[C@@H]5OC[C@@H](O[C@@H]6O[C@H](CO)[C@H](O)[C@H](O)[C@H]6O[C@@H]6O[C@H](C)[C@@H](O)[C@H](O)[C@H]6O)[C@H](O)[C@H]5O[C@H]5O[C@@H](C)[C@H](O)[C@@H](O)[C@@H]5O)[C@H]4O)[C@H]4C[C@@H](OS(=O)(=O)O)CC[C@]4(C)C3=CC[C@@]21C`, the outcome in assay [2], in assay [3], in assay [1] and in assay [4] was inactive.
As to `C[C@H](/C=C/[C@@H](C)[C@H]1C[C@@H](O)C2=C3C[C@H](O)C4C[C@@H](O)CC[C@]4(C)[C@H]3CC[C@@]21C)[C@H](C)CO` (some centres not stated), the result in assay [2] and in assay [1] was Active.
Regarding `CC(C)[C@@H](O)/C=C/[C@@H](C)[C@H]1C[C@@H](O)[C@@H]2[C@]1(C)CC[C@H]1[C@@]2(O)C[C@H](O)C2C[C@@H](O)CC[C@@]21C` (some centres not stated), the result in assay [2] and in assay [1] was Active.
In the case of `CC(C)/C(=C/CO[C@@H]1OC[C@@H](O)[C@H](O)[C@H]1O)CC[C@@H](C)[C@H]1C[C@@H](O)C2=C3C[C@H](O)[C@H]4C[C@@H](O)CC[C@]4(C)[C@H]3CC[C@@]21C`, the outcome in assay [2] and in assay [1] was Active.
Turning to `CO[C@H]1[C@H](O[C@H]2[C@H](OCC[C@H](CC[C@@H](C)[C@H]3C[C@@H](O)[C@@H]4[C@]3(C)CC[C@@H]3[C@@]5(C)CC[C@H](O)[C@H](O)[C@@H]5[C@@H](O)C[C@]34O)C(C)C)OC[C@@H](O)[C@@H]2O)OC[C@@H](O)[C@@H]1O`, the result in assay [2] and in assay [1] was Active.
On to `CC(C)CC(=O)C[C@@](C)(O)[C@H]1CC[C@H]2[C@@H]3C[C@H](O[C@@H]4O[C@H](C)[C@@H](O)[C@H](O[C@@H]5OC[C@@H](O[C@@H]6O[C@H](CO)[C@H](O)[C@H](O)[C@H]6O[C@@H]6O[C@H](C)[C@@H](O)[C@H](O)[C@H]6O)[C@H](O)[C@H]5O[C@H]5O[C@@H](C)[C@H](O)[C@@H](O)[C@@H]5O)[C@H]4O)[C@H]4C[C@@H](OS(=O)(=O)O)CC[C@]4(C)C3=CC[C@@]21C`, for which the result in assay [2], in assay [3], in assay [1] and in assay [4] was inactive.
On to `CC(C)[C@@H](CCO[C@@H]1OC[C@@H](O)[C@H](O)[C@H]1O[C@@H]1OC[C@@H](O)[C@H](O)[C@H]1O)CC[C@@H](C)[C@H]1C[C@@H](O)[C@@H]2[C@]1(C)CC[C@@H]1[C@@]3(C)CC[C@H](O)[C@H](O)[C@@H]3[C@@H](O)C[C@]12O`, for which the outcome in assay [2] and in assay [1] was Active.
Consider `CC(/C=C/[C@@H](C)[C@H]1C[C@@H](O)C2=C3C[C@H](O)C4C[C@@H](O)CC[C@]4(C)[C@H]3CC[C@@]21C)CO` (some centres not stated), for which the result in assay [2] was Active.
